According to patent US20120020915A1, “Compounds and Methods for Treating Cancer and Diseases of the Central Nervous System” (QUEENS UNIVERSITY AT KINGSTON, priority 2007, published 2012):
Counter-ions that a name gives are not always drawn. Like-named read-outs stand apart in the source and are kept apart here. Values belong to the compound of their own block, whether it stands above or below them.

What was measured:
HO-1 (rat spleen) = molecular target: T1, HO-1 (rat spleen) (Rattus norvegicus, UniProt P06762); test: HO enzymatic activity, rat spleen microsomal fraction (CO formation from methemalbumin); type: biochemical
T1 construct: Spleen microsomes were used as a source of HO-1; from tissue; host or cells: spleen microsomal fraction of adult male Sprague-Dawley rats
T1 sequence (P06762 1-289): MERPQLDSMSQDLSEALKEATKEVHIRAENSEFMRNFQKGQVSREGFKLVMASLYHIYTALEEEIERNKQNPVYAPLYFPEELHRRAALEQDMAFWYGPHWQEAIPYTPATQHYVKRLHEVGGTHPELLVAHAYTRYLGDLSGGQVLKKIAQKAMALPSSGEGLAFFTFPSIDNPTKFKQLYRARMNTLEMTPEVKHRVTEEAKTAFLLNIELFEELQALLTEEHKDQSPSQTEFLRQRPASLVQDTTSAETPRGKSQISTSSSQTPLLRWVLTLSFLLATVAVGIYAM
Experimental: (§1) Incubations for HO activity analysis were done under conditions for which the rate of CO formation (pmol CO×min^−1×mg protein^−1) was linear with respect to time and microsomal protein concentration. Briefly, reaction mixtures (150 μL) consisting of 100 mM phosphate buffer (pH 7.4), 50 μM methemalbumin, and 1 mg/mL protein were pre-incubated with the inhibitors at final concentrations ranging from 0.1-100 μM for 10 minutes at 37° C. Reactions were initiated by adding NADPH at a final concentration of 1 mM and incubations were performed for an additional 15 minutes at 37° C.
(§2) Incubations for HO activity analysis were done under conditions for which the rate of CO formation (pmol CO/mg protein/minute) was linear with respect to time and microsomal protein concentration. Briefly, reaction mixtures (150 μL) consisting of 100 mM phosphate buffer (pH 7.4), 50 μM methemalbumin and 1 mg/mL protein were pre-incubated with the vehicle (ethanol or water in which the inhibitors were dissolved), or inhibitors at final concentrations ranging from 0.1-1000 μM for 10 minutes at 37° C. Reactions were initiated by adding β-NADPH at a final concentration of 1 mM and incubations were carried out for an additional 15 minutes at 37° C. Reactions were stopped by instantly freezing the reaction mixture on pulverized dry ice and CO formation was measured by gas chromatography using a TA 3000R Process Gas Analyzer (Trace Analytical/Ametek, Newark, Del., USA).
(§3) The values on the abscissa represent the decimal logarithm of the inhibitor's concentration (in μM), whereas the values of the activity on the ordinate are expressed as a percentage of the control experiments without inhibitor.
(§4) The IC50 values for the replicate experiments were employed to generate the reported standard deviation value.

HO-2 (rat brain) = molecular target: T2, HO-2 (rat brain) (Rattus norvegicus, UniProt P23711); test: HO enzymatic activity, rat brain microsomal fraction (CO formation from methemalbumin); type: biochemical
T2 construct: brain microsomes were used as a source of HO-2; from tissue; host or cells: brain microsomal fraction of adult male Sprague-Dawley rats
T2 sequence (P23711 1-315): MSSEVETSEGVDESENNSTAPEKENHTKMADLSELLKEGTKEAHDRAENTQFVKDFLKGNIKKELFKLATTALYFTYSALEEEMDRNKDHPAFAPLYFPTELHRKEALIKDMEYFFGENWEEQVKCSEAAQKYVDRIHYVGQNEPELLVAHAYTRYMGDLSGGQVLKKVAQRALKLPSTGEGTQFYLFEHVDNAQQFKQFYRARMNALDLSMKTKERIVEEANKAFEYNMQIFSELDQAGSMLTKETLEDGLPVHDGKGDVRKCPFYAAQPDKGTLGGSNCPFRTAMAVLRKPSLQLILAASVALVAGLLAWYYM
Experimental: as §1, §2, §3, §4

[1] = IC50 HO-1 (rat spleen/μM), CO formation from methemalbumin, mean ± SD of replicate experiments
[2] = CO formation from methemalbumin, mean ± SD of replicate experiments, read-out: IC50 HO-1 (rat spleen/μM)
[3] = IC50 HO-2 (rat brain)/μM), CO formation from methemalbumin, mean ± SD of replicate experiments
[4] = CO formation from methemalbumin, mean ± SD of replicate experiments, read-out: IC50 HO-2 (rat brain)/μM)
[5] = IC50 HO-1 (rat spleen/μM), average ± SD of replicate experiments
[6] = IC50 HO-2 (rat brain)/μM), average ± SD of replicate experiments
[7] = average ± SD of replicate experiments, read-out: IC50 HO-1 (rat spleen/μM)

Compound: Cl.Ic1ccc(CCC2(Cn3ccnc3)OCCO2)cc1 [QC-78, 1-((2-(2-(4-Iodophenyl)ethyl)-1,3-dioxolan-2-yl)methyl)-1H-imidazole hydrochloride]
melting point: 241 to 243 °C (dec.)
IC50 (HO-1 (rat spleen); [1]): 4 ± 1 µM

melting point: 162 to 163 °C
Compound: Cl.Clc1ccc(CC[C@@]2(Cn3ccnc3)OC[C@@H](COc3ccc(-c4ccccc4)cc3)O2)cc1 [QC-129]

melting point: 156 to 157 °C
Compound: Cl.Clc1ccc(CC[C@@]2(Cn3ccnc3)OC[C@@H](CSc3ccc4ccccc4c3)O2)cc1 [QC-121, (2R,4S)-1-[2-[2-(4-Chlorophenyl)ethyl]-4-(naphthalen-2-ylsulfanylmethyl)-[1,3]dioxolan-2-ylmethyl]-1H-imidazole hydrochloride]

melting point: 121 to 122 °C
IC50 (HO-1 (rat spleen); [2]): 0.5 ± 0.3 µM
Compound: Cl.Clc1ccc(CCCCn2ccnc2)cc1 [QC-105, 1-[4-(4-chlorophenyl)butyl]-1H-imidazole hydrochloride]

melting point: 128 to 129 °C
Compound: COc1ccc(OCC2CO[C@@](CCc3ccc(Cl)cc3)(Cn3ccnc3)O2)cc1.Cl (stereo in doubt) [QC-132, (2R,4S)-1-[2-[2-(4-Chlorophenyl)ethyl]-4-(4-methoxyphenoxymethyl)-[1,3]dioxolan-2-ylmethyl]-1H-imidazole hydrochloride]

Compound: Cl.OC(CCc1ccc(I)cc1)Cn1ccnc1 (racemic) [QC-74, (±)-1-(1H-Imidazol-1-yl)-4-(4-iodophenyl)-2-butanol hydrochloride]
melting point: 196 to 197 °C
IC50 (HO-2 (rat brain); [3]): 2 ± 1 µM

Compound: Cl.OC(CCc1ccc(Br)cc1)Cn1ccnc1 (racemic) [QC-79, (±)-4-(4-Bromophenyl)-1-(1H-imidazol-1-yl)-2-butanol hydrochloride]
melting point: 174 to 175 °C
IC50 (HO-1 (rat spleen); [2]): 0.1 ± 0.1 µM
IC50 (HO-2 (rat brain); [3]): 2.6 ± 0.5 µM

IC50 (HO-1 (rat spleen); [2]): > 100 µM
IC50 (HO-2 (rat brain); [4]): > 100 µM
Compound: CS(=O)(=O)c1nccn1CC(=O)CCc1ccccc1 [QC-125, 1-(2-Methanesulfonyl-imidazol-1-yl)-4-phenyl-butan-2-one]

Compound: CCC(O)Cn1ccnc1 (stereo not drawn) [QC-31, 1-(1H-imidazol-1-yl)butan-2-ol hydrochloride]
IC50 (HO-1 (rat spleen); [1]): 131 ± 38 µM
IC50 (HO-2 (rat brain); [3]): > 100 µM

Compound: COC(=O)c1ncn(CC(=O)CCc2ccccc2)c1C(=O)OC [QC-123, 1-(2-Oxo-4-phenyl-butyl)-1H-imidazole-4,5-dicarboxylic acid dimethyl ester hydrochloride]
IC50 (HO-1 (rat spleen); [1]): > 100 µM
IC50 (HO-2 (rat brain); [3]): > 100 µM

Compound: O=C(Cn1cncn1)c1ccccc1 [QC-157, 1-Phenyl-2-[1,2,4]triazol-1-yl-ethanone hydrochloride]
IC50 (HO-1 (rat spleen); [5]): 12 ± 0.9 µM
IC50 (HO-2 (rat brain); [6]): > 100 µM

IC50 (HO-1 (rat spleen); [2]): > 100 µM
IC50 (HO-2 (rat brain); [4]): > 100 µM
Compound: c1cn(CCCCn2ccnc2)cn1 [QC-88, 1,4-bis-(1H-imidazol-1-yl)butane dihydrochloride]

Compound: c1ccc(C2(Cn3cncn3)OCCO2)cc1 [QC-254, 1-(2-Phenyl-[1,3]dioxolan-2-ylmethyl-1H-[1,2,4]triazole hydrochloride]
IC50 (HO-1 (rat spleen); [5]): 144 ± 15 µM
IC50 (HO-2 (rat brain); [6]): > 100 µM

IC50 (HO-1 (rat spleen); [2]): > 100 µM
IC50 (HO-2 (rat brain); [4]): > 100 µM
Compound: O=C(NCCCn1ccnc1)c1ccccc1 [QC-109, N-(3-Imidazol-1-yl-propyl)-benzamide]

IC50 (HO-1 (rat spleen); [2]): 163 ± 10 µM
IC50 (HO-2 (rat brain); [4]): > 100 µM
Compound: O=C(CCc1ccccc1)C[n+]1ccncc1 [QC-97, 1-(4-phenyl-2-oxo-butyl)-pyrazin-1-ium bromide]

IC50 (HO-1 (rat spleen); [2]): > 100 µM
IC50 (HO-2 (rat brain); [4]): > 100 µM
Compound: COC(=O)c1cn(CC(=O)CCc2ccccc2)cn1 [QC-133, 1-(2-Oxo-4-phenyl-butyl)-1H-imidazole-4-carboxylic acid methyl ester]

Compound: Brc1ccc(CCCCn2ccnc2)cc1 [QC-199, 1-[4-(4-Bromo-phenyl)-butyl]-1H-imidazole hydrochloride]
IC50 (HO-1 (rat spleen); [5]): 0.25 ± 0.02 µM
IC50 (HO-2 (rat brain); [6]): 6.7 ± 0.3 µM

Compound: O=C(CCc1ccc(Br)cc1)Cn1cnc2ccccc21 [QC-62, 4-(4-bromophenyl)-1-(1H-benzimidazol-1-yl)butan-2-one hydrochloride]
IC50 (HO-1 (rat spleen); [1]): > 100 µM
IC50 (HO-2 (rat brain); [3]): > 100 µM

Compound: c1c[nH]cn1 [QC-43, Imidazole, reference compound]
IC50 (HO-1 (rat spleen); [1]): > 100 µM
IC50 (HO-2 (rat brain); [3]): > 100 µM

Compound: Cc1ccc(C(=O)Cn2ccnc2)cc1 [QC-165, 2-Imidazol-1-yl-1-p-tolyl-ethanone hydrochloride]
IC50 (HO-1 (rat spleen); [5]): 17 ± 4 µM
IC50 (HO-2 (rat brain); [6]): 69 ± 16 µM

IC50 (HO-1 (rat spleen); [2]): 2 ± 1 µM
IC50 (HO-2 (rat brain); [4]): > 43 µM
Compound: (2R,4R)-2-[2-(4-phenyl)ethyl]-2-[(1H-imidazol-1-yl)methyl]-4-methyl-1,3-dioxolane hydrochloride [QC-35]

IC50 (HO-1 (rat spleen); [2]): > 100 µM
IC50 (HO-2 (rat brain); [4]): > 100 µM
Compound: CSCC[C@@H](N)C(=O)O [QC-69, D-methionine, reference compound]

Compound: COc1ccc(C(=O)Cn2ccnc2)cc1 [QC-163, 2-Imidazol-1-yl-1-(4-methoxyphenyl)-ethanone hydrochloride]
IC50 (HO-1 (rat spleen); [7]): 32 ± 4 µM
IC50 (HO-2 (rat brain); [6]): 62 ± 3 µM

IC50 (HO-1 (rat spleen); [2]): > 100 µM
IC50 (HO-2 (rat brain); [4]): > 100 µM
Compound: O=C(CCc1ccccc1)Cn1cnc2ccccc21 [QC-128, 1-Benzoimidazol-1-yl-4-phenyl-butan-2-one]

Compound: Fc1ccc(COC(CCc2ccc(Cl)cc2)Cn2ccnc2)cc1 (stereo not drawn) [QC-37, 4-(4-Chlorophenyl)-2-(4-fluorobenzyloxy)-1-(1H-imidazol-1-yl)butane hydrochloride]
IC50 (HO-1 (rat spleen); [2]): 0.9 ± 0.3 µM
IC50 (HO-2 (rat brain); [4]): 1 ± 0.01 µM

IC50 (HO-1 (rat spleen); [2]): > 100 µM
IC50 (HO-2 (rat brain); [4]): > 100 µM
Compound: Cc1ncc[nH]1 [QC-45, 2-methylimidazole, reference compound]

IC50 (HO-1 (rat spleen); [2]): > 100 µM
IC50 (HO-2 (rat brain); [4]): > 100 µM
Compound: O=C(n1ccnc1)C(F)(F)F [QC-77, N-trifluoroacetylimidazole]

IC50 (HO-1 (rat spleen); [2]): > 100 µM
IC50 (HO-2 (rat brain); [4]): > 100 µM
Compound: CCCC(=O)n1ccnc1 [QC-100, N-butyrylimidazole]

IC50 (HO-1 (rat spleen); [2]): > 100 µM
IC50 (HO-2 (rat brain); [4]): > 100 µM
Compound: O=C(CCc1ccccc1)Cn1cnc([N+](=O)[O-])c1 [QC-127, 1-(4-Nitro-imidazol-1-yl)-4-phenyl-butan-2-one]

IC50 (HO-1 (rat spleen); [7]): > 100 µM
IC50 (HO-2 (rat brain); average ± SD of replicate experiments, read-out: IC50 HO-2 (rat brain)/μM)): > 100 µM
Compound: CS(=O)(=O)c1ncn(CC(=O)CCc2ccccc2)n1 [QC-155, 1-(3-Methanesulfonyl-[1,2,4]triazol-1-yl)-4-phenyl-butan-2-one]

melting point: 110 to 111 °C
Compound: Cl.FC(F)(F)c1ccc(CCCCn2ccnc2)cc1

Compound: O=C(CCn1ccnc1)c1ccc(Cl)cc1 [QC-85, 1-(4-chlorophenyl)-3-imidazol-1-yl-propan-1-one hydrochloride]
IC50 (HO-1 (rat spleen); [1]): 32 ± 3 µM
IC50 (HO-2 (rat brain); [3]): > 100 µM

Compound: O=C(CCc1ccccc1)Cn1ccnc1[N+](=O)[O-] [QC-160, 1-(2-Nitro-imidazol-1-yl)-4-phenyl-butan-2-one hydrochloride]
IC50 (HO-1 (rat spleen); [5]): > 100 µM
IC50 (HO-2 (rat brain); [6]): > 100 µM

IC50 (HO-1 (rat spleen); [2]): > 100 µM
IC50 (HO-2 (rat brain); [4]): > 100 µM
Compound: O=C(NCCCn1ccnc1)Nc1ccccc1 [QC-107, 1-(3-Imidazol-1-yl-propyl)-3-phenyl-urea]

Compound: N#Cc1ncn(CC(=O)CCc2ccccc2)c1C#N [QC-154, 1-(2-Oxo-4-phenylbutyl)-1H-imidazole-4,5-dicarbonitrile hydrochloride]
IC50 (HO-1 (rat spleen); [5]): > 100 µM
IC50 (HO-2 (rat brain); [6]): > 100 µM

Compound: CN(C)CCC(=O)c1ccc(Cl)cc1 [QC-84, 1-(4-chlorophenyl)-3-dimethylamino-propan-1-one]
IC50 (HO-1 (rat spleen); [1]): > 100 µM
IC50 (HO-2 (rat brain); [3]): > 100 µM

Compound: O=C(Cn1ccnc1)c1ccc(Cl)cc1 [QC-142, 1-(4-Chlorophenyl)-2-imidazol-1-yl-ethanone hydrochloride]
IC50 (HO-1 (rat spleen); [5]): 4 ± 2 µM
IC50 (HO-2 (rat brain); [6]): 20 ± 8 µM

Compound: O=C(O)Cn1ccnc1 [QC-66, Imidazol-1-yl-acetic acid]
IC50 (HO-1 (rat spleen); [2]): > 100 µM
IC50 (HO-2 (rat brain); [4]): > 100 µM

Compound: CCC(COC(C)=O)n1ccnc1 (stereo not drawn) [QC-36, 1-acetoxy-2-(1H-imidazol-1-yl)-butane]
IC50 (HO-1 (rat spleen); [2]): > 100 µM
IC50 (HO-2 (rat brain); [4]): > 100 µM
